According to patent US11178871B2, “Herbicidal pyrimidine compounds” (BASF SE, priority 2016, dated 2021):

Experiments:
Type in all cases: in vivo
Alopecurus myosuroides = experiment: greenhouse test, post-emergence treatment, ALOMY; details: post-emergence
Excerpt: (§1) The culture containers used were plastic flowerpots containing loamy sand with approximately 3.0% of humus as the substrate. The seeds of the test plants were sown separately for each species.
(§2) For the post-emergence treatment, the test plants were first grown to a height of 3 to 15 cm, depending on the plant habit, and only then treated with the active ingredients which had been suspended or emulsified in water. For this purpose, the test plants were either sown directly and grown in the same containers, or they were first grown separately as seedlings and transplanted into the test containers a few days prior to treatment.
(§3) Depending on the species, the plants were kept at 10-25° C. or 20-35° C., respectively.
(§4) The test period extended over 2 to 4 weeks. During this time, the plants were tended, and their response to the individual treatments was evaluated.
(§5) Evaluation was carried out using a scale from 0 to 100. 100 means no emergence of the plants, or complete destruction of at least the aerial moieties, and 0 means no damage, or normal course of growth. A good herbicidal activity is given at values of at least 70 and a very good herbicidal activity is given at values of at least 85.
(§6) The plants used in the greenhouse experiments were of the following species: […]

Apera spica-venti = experiment: greenhouse test, pre-emergence treatment, APESV
Excerpt: as §1
(§7) For the pre-emergence treatment, the active ingredients, which had been suspended or emulsified in water, were applied directly after sowing by means of finely distributing nozzles. The containers were irrigated gently to promote germination and growth and subsequently covered with transparent plastic hoods until the plants had rooted. This cover caused uniform germination of the test plants, unless this had been impaired by the active ingredients.
as §3, §4, §5, §6

Echinocloa crus-galli [1] = experiment: greenhouse test, post-emergence treatment, ECHCG; details: post-emergence
Excerpt: as §1, §2, §3, §4, §5, §6

Echinocloa crus-galli [2] = experiment: greenhouse test, pre-emergence treatment, ECHCG
Excerpt: as §1, §7, §3, §4, §5, §6

Avena fatua = experiment: greenhouse test, post-emergence treatment, AVEFA
Excerpt: as §1, §2, §3, §4, §5, §6

Structure (SMILES)	herbicidal activity (Alopecurus myosuroides; 2000 g/ha)	herbicidal activity (Echinocloa crus-galli [1]; 2000 g/ha)	herbicidal activity (Apera spica-venti; 2000 g/ha)	other results
CC(C)(O)c1nc(C2CC2)ncc1-c1ccc(F)cc1Cl [Ex. 135]	–	–	–	herbicidal activity (Alopecurus myosuroides; 500 g/ha): good (A good herbicidal activity is given at values of at least 70)
Clc1ccccc1-c1cnc(C2CC2)nc1COCc1ccccc1 [Ex. 21]	–	–	–	herbicidal activity (Alopecurus myosuroides; 1000 g/ha): very good (a very good herbicidal activity is given at values of at least 85); herbicidal activity (Apera spica-venti; 1000 g/ha): very good (a very good herbicidal activity is given at values of at least 85)
Cc1ccc(-c2nc(C3CC3)ncc2-c2ccccc2C)o1 [Ex. 120]	–	–	–	herbicidal activity (Alopecurus myosuroides; 1000 g/ha): good (A good herbicidal activity is given at values of at least 70)
CC(C)(C)/C=C/c1nc(C2CC2)ncc1-c1ccccc1Cl [Ex. 95]	very good (a very good herbicidal activity is given at values of at least 85)	very good (a very good herbicidal activity is given at values of at least 85)	very good (a very good herbicidal activity is given at values of at least 85)	–
Brc1ccccc1-c1cnc(C2CC2)nc1-c1ccco1 [Ex. 34]	good (A good herbicidal activity is given at values of at least 70)	very good (a very good herbicidal activity is given at values of at least 85)	very good (a very good herbicidal activity is given at values of at least 85)	herbicidal activity (Echinocloa crus-galli [2]; 2000 g/ha): good (A good herbicidal activity is given at values of at least 70)
OC1(Cc2nc(C3CC3)ncc2-c2ccccc2Br)COC1 [Ex. 155]	very good (a very good herbicidal activity is given at values of at least 85)	very good (a very good herbicidal activity is given at values of at least 85)	–	–
OC1(c2nc(C3CC3)ncc2-c2ccccc2Cl)CCC1 [Ex. 143]	–	very good (a very good herbicidal activity is given at values of at least 85)	–	–
CC(C)=CC=Cc1nc(C2CC2)ncc1-c1ccccc1Cl [Ex. 224]	very good (a very good herbicidal activity is given at values of at least 85)	very good (a very good herbicidal activity is given at values of at least 85)	very good (a very good herbicidal activity is given at values of at least 85)	herbicidal activity (Echinocloa crus-galli [2]; 2000 g/ha): very good (a very good herbicidal activity is given at values of at least 85)
COC(=O)C(O)c1nc(C2CC2)ncc1-c1ccccc1Cl (centres unmarked) [Ex. 220]	–	–	–	herbicidal activity (Echinocloa crus-galli [2]; 1000 g/ha): good (A good herbicidal activity is given at values of at least 70)
Clc1ccccc1-c1cnc(C2CC2)nc1/C=C/c1ccco1 [Ex. 94]	very good (a very good herbicidal activity is given at values of at least 85)	–	very good (a very good herbicidal activity is given at values of at least 85)	herbicidal activity (Avena fatua; 2000 g/ha): very good (a very good herbicidal activity is given at values of at least 85)
COc1cccc(-c2nc(C3CC3)ncc2-c2ccccc2Cl)c1 [Ex. 125]	–	–	–	herbicidal activity (Echinocloa crus-galli [1]; 500 g/ha): very good (a very good herbicidal activity is given at values of at least 85)
CCOP(=O)(OCC)C(OS(C)(=O)=O)c1nc(C2CC2)ncc1-c1ccccc1Cl (centres unmarked) [Ex. 89]	very good (a very good herbicidal activity is given at values of at least 85)	–	good (A good herbicidal activity is given at values of at least 70)	herbicidal activity (Avena fatua; 2000 g/ha): good (A good herbicidal activity is given at values of at least 70)
O=C(O)C(O)Cc1nc(C2CC2)ncc1-c1ccccc1Cl (centres unmarked) [Ex. 97]	–	very good (a very good herbicidal activity is given at values of at least 85)	very good (a very good herbicidal activity is given at values of at least 85)	–
Fc1cccc(Cl)c1-c1cnc(C2CC2)nc1-c1ccco1 [Ex. 60]	–	–	–	herbicidal activity (Alopecurus myosuroides; 1000 g/ha): very good (a very good herbicidal activity is given at values of at least 85); herbicidal activity (Avena fatua; 1000 g/ha): very good (a very good herbicidal activity is given at values of at least 85)
OC(c1nc(C2CC2)ncc1-c1ccccc1Cl)C(O)c1c(Cl)ccc(Cl)c1Cl (centres unmarked) [Ex. 240]	–	–	very good (a very good herbicidal activity is given at values of at least 85)	herbicidal activity (Echinocloa crus-galli [2]; 2000 g/ha): very good (a very good herbicidal activity is given at values of at least 85)
OC(Cc1nc(C2CC2)ncc1-c1ccccc1Cl)c1ccccc1 (centres unmarked) [Ex. 66]	–	very good (a very good herbicidal activity is given at values of at least 85)	–	–
Cc1ccc(-c2nc(C3CC3)ncc2-c2ccc(F)cc2I)o1 [Ex. 81]	–	–	–	herbicidal activity (Alopecurus myosuroides; 1000 g/ha): very good (a very good herbicidal activity is given at values of at least 85); herbicidal activity (Avena fatua; 1000 g/ha): very good (a very good herbicidal activity is given at values of at least 85)
